# Data: patent publication US20030139374A1 (University of Texas, published 2003)
# Key:
# A20 lymphoma cells = experiment: In vitro coagulation assay on A20 cells with B21-2/10H10 capture antibody; assay type: cell-based, mouse; details: for coagulation time: cells alone 190 seconds
# [1] = Plasma coagulation parameters (TAT, ATIII) three days after treatment; assay type: in vivo, SCID mice; details: tTF alone, no endotoxin, three days after i.v. treatment
# [2] = biological target: T1, Factor Xa generation (Factor VIIa, Factor X) (Homo sapiens, UniProt P08709); experiment: Cell free two-stage coagulation assay; assay type: biochemical; details: FIG. 2
# T1 construct: purchased Sigma
# T1 sequence (P08709 61-212 limits assumed): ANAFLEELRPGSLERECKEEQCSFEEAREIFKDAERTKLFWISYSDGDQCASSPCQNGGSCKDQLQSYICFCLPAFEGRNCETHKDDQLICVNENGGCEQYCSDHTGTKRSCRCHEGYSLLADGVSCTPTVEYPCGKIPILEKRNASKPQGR
# T1 sequence (P08709 213-466 limits assumed): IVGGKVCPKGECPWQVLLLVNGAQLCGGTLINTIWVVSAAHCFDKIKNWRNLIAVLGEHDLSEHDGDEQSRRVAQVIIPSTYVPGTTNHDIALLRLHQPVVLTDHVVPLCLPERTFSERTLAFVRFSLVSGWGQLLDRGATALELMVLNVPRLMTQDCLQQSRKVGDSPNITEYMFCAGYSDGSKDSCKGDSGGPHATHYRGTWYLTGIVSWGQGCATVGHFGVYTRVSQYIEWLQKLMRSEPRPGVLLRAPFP
# T1 sequence (P13726 33-251 partner limits assumed): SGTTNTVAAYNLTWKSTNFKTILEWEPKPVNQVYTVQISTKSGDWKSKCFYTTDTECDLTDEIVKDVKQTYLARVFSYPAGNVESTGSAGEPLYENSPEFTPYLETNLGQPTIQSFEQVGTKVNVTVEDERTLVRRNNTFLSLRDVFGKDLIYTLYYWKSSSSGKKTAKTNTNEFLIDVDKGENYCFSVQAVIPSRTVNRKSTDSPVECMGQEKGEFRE
# Protocol: In vitro coagulation activity was tested in a cell free two-stage coagulation assay. Negatively charged phospholipids at a final concentration of 50 μM (phosphatidylserine and phosphatidylcholine from Sigma, Taufkirchen, Germany) in calcium buffer (50 mM Tris pH=8.1, 150 mM NaCl, 2 mg/ml BSA, 5 mM Ca^++) were mixed with Factor VIIa (Sigma, Taufkirchen, Germany) at 10 nM and with samples or controls and incubated for five min at 37° C. Factor X was added to a final concentration of 30 nM and samples were incubated for 5 min at room temperature. Finally, the chromogenic substrate S2765 (Haemochrom, Essen, Germany) was added in a 100 mM EDTA solution. Factor Xa generation as a measure of Tissue Factor activity was determined by the increase in the absorption at 405 nm.
# Negatively charged phospholipids at a final concentration of 50 μM (phosphatidylserine and phosphatidylcholine from Sigma, St. Louis, Mo.) in calcium buffer (50 mM Tris pH=8.1, 150 mM NaCl, 2 mg/ml BSA, 5 mM Ca^++) were mixed with Factor VIIa (Sigma, St. Louis, Mo.) at 10 nM and with samples or controls and incubated for five minutes at 37° C. Factor X (Sigma, St. Louis, Mo.) was added to a final concentration of 30 nM and samples were incubated for 5 minutes at room temperature. […] Factor Xa generation as a measure of tissue factor activity was determined by the increase in the absorption at 405 nm.
# [3] = Clinical signs of toxicity and histology of normal organs after tTF and/or endotoxin; assay type: in vivo, SCID mice; details: for Symptoms: no endotoxin, tTF i.v.
# Protocol: (§1) Treatment was initiated when subcutaneous tumors reached a size of 150 to 300 μl. Reagents were administered into the lateral tail vein.
# (§2) Mice were closely observed after treatment for clinical signs of toxicity and clinical status was documented at defined time points (5 minutes. 10 minutes, 15 minutes, 30 minutes. 1 hour, 2 hours, 24 hours, 48 hours, 72 hours). Blood samples were taken from the tail vein at 1 hour, 2 hours and 24 hours to measure TNFα blood levels. Three days after treatment, the mice were anesthetized, blood samples were taken from the vena cava for coagulation tests, and an autopsy was performed to document any changes in gross pathology. Tumors, lymph node metastases and the major normal organs (heart, lung, brain, liver, kidney, colon, spleen, pancreas) were harvested and prepared for histological analysis.
# (§3) Tissue samples harvested at the time of autopsy were fixed in 3% NBF (normal buffered formalin) and embedded in paraffin wax. Tissue blocs were cut, dewaxed and stained with hematoxilin and eosin (H&E). Tissue sections were analyzed on a light microscope by two independent investigators and histological findings were documented. Tumor sections with necrotic areas were scanned with a GS-700 imaging densitometer (Biorad, Hercules, Calif.) and areas of necrosis were calculated as % of total section area. Statistical Analysis was performed using SPSS software (SPSS Science Software, Erkrath, Germany) applying the Mann-Whitney-U-test for ungrouped data.
# immobilized tTF = biological target: T2, immobilized tTF (Homo sapiens, UniProt P13726); experiment: Real time binding of tTF to immobilized tTF (surface plasmon resonance); details: tTF 30 μg/ml alone or preincubated with endotoxin or factor VIIa
# T2 construct: Recombinant soluble Tissue Factor protein (amino acids 1-219) was extracted from the periplasmic space of transformed E. coli; His tag (only implied by the Ni-NTA purification); made in house; host or cells: E. coli (periplasmic secretion, vector pswc7)
# T2 sequence (P13726 33-251): as the sequence (P13726 33-251 partner limits assumed) above
# bEnd 3 cells = experiment: Cell bound coagulation assay on stimulated bEnd 3 endothelial cells (factor Xa generation); assay type: cell-based, murine; details: for Factor Xa generation due to Factor VIIa production: factor VII-only values subtracted
# F9 sarcoma tumors = experiment: F9 sarcoma mouse model, tumor tissue necrosis; assay type: in vivo, balb/c nude mice; details: endotoxin-free tTF 4 μg; three days after treatment
# Protocol: 1×10^7 F9 sarcoma cells were injected subcutaneously into the right flank of balb/c nude mice. Subcutanous tumors were measured with a caliper in three perpendicular directions a, b, and c, and volumes calculated according to the formula V=π/6×a×b×c. Treatment was initiated when subcutaneous tumors reached a size of 150 to 300 μl.
# Reagents were administered into the lateral tail vein.
# Mice were closely observed after treatment for clinical signs of toxicity and clinical status was documented at defined time points. Three days after treatment, mice were sacrificed and tumors were harvested. Paraffin embedded tissues were stained with hematoxilin and eosin (H&E). Tissue sections were analyzed on a light microscope by two independent investigators and histological findings were documented. Tumor sections with necrotic areas were scanned with a GS-700 imaging densitometer (Biorad. Hercules, Calif.) and areas of necrosis were calculated as % of total section area.
# [4] = tested on: L540rec human Hodgkin's lymphoma tumors; experiment: Tumor tissue necrosis in L540rec tumor-bearing SCID mice treated with tTF and/or endotoxin; assay type: in vivo
# Protocol: For in vivo studies, a metastasizing mouse model for human Hodgkin's lymphoma was used. 1×10^7 L540rec cells were injected subcutaneously into the right flank of SCID mice resulting in a subcutaneous tumor with lymph node metastases in the regional lymph node stations. Subcutanous tumors were measured with a caliper in three perpendicular directions a, b, and c, and volumes calculated according to the formula V=π/6×a×b×c.
# as §1, §2, §3
substance,measurement,setting,value
"tTF: truncated (soluble) human Tissue Factor, extracellular domain, amino acid 1-219 of the mature protein",coagulation time,"A20 lymphoma cells; 20,000 molecules per cell",140 s
same,coagulation time,"A20 lymphoma cells; 300,000 molecules of tTF per cell",40 s
same,concentration at which plasma coagulated in 50 seconds,A20 lymphoma cells; bound via B21-2/10H10 to A20 cells,3 nM
same,time until fibrin strands were visible,"A20 lymphoma cells; mouse plasma, tTF bound by B21-2/10H10, untreated cells 164 seconds",36 s
same,increase in coagulation-inducing potency,A20 lymphoma cells; presence of 0.1 nM Factor VIIa,2-5 fold
same,TAT,[1],25.4 ng/mL
same,coagulation activities before and after endotoxin removal (depyrogenation),[2],the same
same,histology of normal organs,"[3]; light microscopy, three days after treatment",No histological abnormalities
same,Symptoms,[3]; listed as TTF,None
same,Symptoms,[3]; listed as endotoxin-free tTF,no clinical signs of toxicity
same,binding to immobilized tTF,immobilized tTF,did not bind
same,Factor Xa generation due to Factor VIIa production,"bEnd 3 cells; stimulation with 0.5 μg/ml LPS (label LPS = medium only), 2 μg/ml factor VII and 0.01 μg/ml factor VIIa",3.00 nkatS2222
same,Factor Xa generation,"bEnd 3 cells; stimulation with 0.5 μg/ml LPS, then incubation with labelled agent (label LPS = medium only), 0.5 μg/ml factor VIIa",2.00 nkatS2222
same,Factor Xa generation,"bEnd 3 cells; stimulation with 10 μg/ml LPS, then incubation with labelled agent (label LPS = medium only), 0.5 μg/ml factor VIIa",2.91 nkatS2222
same,Factor Xa generation due to Factor VIIa production,"bEnd 3 cells; stimulation with Medium, mix with 2 μg/ml factor VII and 0.01 μg/ml factor VIIa",0.70 nkatS2222
same,Factor Xa generation,"bEnd 3 cells; stimulation with Medium, then incubation with the labelled agent (100 nM), mix with 0.5 μg/ml factor VIIa (VIIa not limiting)",0.40 nkatS2222
same,Factor Xa generation,"bEnd 3 cells; stimulation with TNFα (500 U/ml), then incubation with labelled agent (label TNFα = medium only), 0.5 μg/ml factor VIIa",0.67 nkatS2222
same,Factor Xa generation due to Factor VIIa production,"bEnd 3 cells; stimulation with TNFα (label TNFα = medium only), 2 μg/ml factor VII and 0.01 μg/ml factor VIIa",1.91 nkatS2222
same,average tumor tissue necrosis,F9 sarcoma tumors,45%
same,% tumor necrosis,"[4]; Table 2, tTF alone, no endotoxin, three days after i.v. treatment",4%
same,Percentage of tumor tissue necrosis,"[4]; tTF alone (4 μg or 16 μg endotoxin-free tTF), no endotoxin",0%
same,anti-tumor effect,[4]; tTF alone at 100 μg,anti-tumor effects begin to appear
same,anti-tumor effect,[4]; tTF alone at doses of from 4 μg to 16 μg,no anti-tumor effect
